Reference: patent publication US7432283B2, “Heterocyclic GABAA subtype selective receptor modulators” (Roche Palo Alto LLC, priority 2004, dated 2008)

How the values were obtained:
[1] = molecular target: T1, GABAA α1β2γ2 (Homo sapiens, UniProt P14867+P18507+P47870); assay: 35S-TBPS binding assay, GABAA α1β2γ2; conditions: 35S-TBPS (5 nM) competition, GABA 1 μM, HEK293 cell membranes, 2 hours at room temperature; for IC50: read-out: pIC50 α1β2γ2 (converted)
T1 construct: expressed in transfected cells; host or cells: HEK293
T1 sequence (P14867 28-456): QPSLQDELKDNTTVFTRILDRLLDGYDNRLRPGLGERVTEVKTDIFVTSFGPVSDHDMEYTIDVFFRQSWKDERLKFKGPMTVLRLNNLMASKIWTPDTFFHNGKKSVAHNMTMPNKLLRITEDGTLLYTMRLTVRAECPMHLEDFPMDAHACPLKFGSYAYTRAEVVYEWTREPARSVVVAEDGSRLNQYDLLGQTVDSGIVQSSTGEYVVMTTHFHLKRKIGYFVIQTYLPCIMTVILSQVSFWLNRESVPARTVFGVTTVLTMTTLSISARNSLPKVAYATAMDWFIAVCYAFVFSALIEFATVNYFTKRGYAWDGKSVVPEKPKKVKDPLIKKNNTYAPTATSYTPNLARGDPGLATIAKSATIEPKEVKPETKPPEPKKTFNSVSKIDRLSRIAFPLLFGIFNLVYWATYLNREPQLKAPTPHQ
T1 sequence (P47870 25-512 limits assumed): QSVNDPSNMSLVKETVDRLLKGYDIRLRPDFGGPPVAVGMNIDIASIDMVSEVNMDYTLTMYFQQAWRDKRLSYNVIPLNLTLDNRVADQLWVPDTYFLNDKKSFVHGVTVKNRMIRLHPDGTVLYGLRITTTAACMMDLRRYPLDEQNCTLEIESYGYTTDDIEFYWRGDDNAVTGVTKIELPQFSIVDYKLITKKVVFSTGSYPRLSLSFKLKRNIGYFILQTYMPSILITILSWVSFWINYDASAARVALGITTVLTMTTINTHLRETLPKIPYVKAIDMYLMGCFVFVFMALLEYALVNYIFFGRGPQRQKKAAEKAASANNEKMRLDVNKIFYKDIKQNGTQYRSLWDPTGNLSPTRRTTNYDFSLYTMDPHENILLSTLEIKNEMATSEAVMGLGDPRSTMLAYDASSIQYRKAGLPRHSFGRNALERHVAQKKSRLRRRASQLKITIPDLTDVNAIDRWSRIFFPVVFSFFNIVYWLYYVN
T1 sequence (P18507 40-475): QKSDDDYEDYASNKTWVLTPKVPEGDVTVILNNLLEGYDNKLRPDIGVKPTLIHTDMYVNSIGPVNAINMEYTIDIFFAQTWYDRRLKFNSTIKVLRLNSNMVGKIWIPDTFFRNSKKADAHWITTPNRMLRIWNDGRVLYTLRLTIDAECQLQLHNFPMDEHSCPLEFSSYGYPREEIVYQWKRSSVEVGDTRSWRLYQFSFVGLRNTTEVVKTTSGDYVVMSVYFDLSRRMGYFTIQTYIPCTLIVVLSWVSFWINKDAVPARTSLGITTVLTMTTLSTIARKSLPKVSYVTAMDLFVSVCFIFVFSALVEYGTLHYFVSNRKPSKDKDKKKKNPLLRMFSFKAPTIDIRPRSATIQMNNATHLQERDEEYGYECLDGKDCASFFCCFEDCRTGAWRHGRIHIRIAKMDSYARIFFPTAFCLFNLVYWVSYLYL
Procedure: (§1) The binding assay is based on the assay reported by K. Gee et al., Eur. J. Pharmacol. 1987 136:419-423.
(§2) Homogenate preparation: Membrane preparations of HEK293 cells containing either GABAA α1β2γ2 or GABAA α2β3γ2 constructs were performed according to a modified procedure previously described by Gee et al. (supra). Whole HEK 293 cells in D-PBS (calcium/magnesium free) buffer adjusted to pH 7.4 were centrifuged at 7,280×g for 20 m. After discarding the supernatant, the pellet was resuspended in the buffer and centrifuged at 1,820×g for 10 m. Afterwards, the supernatant was discarded and the pellet resuspended in ice-cold preparation buffer (50 mM Tris HCl pH 7.4, 4° C. and 150 mM KCl), homogenized for 30 sec using a Brinkmann Polytron PT3000 (setting 6) and centrifuged at 48,000×g for 30 m at 4° C. The centrifugation and homogenization procedure was repeated two more times for a total of 3 times before resuspending the membranes at a final protein concentration of 0.5 mg/mL. Aliquots (30 mL) of the final membrane preparation were then centrifuged at 48,000×g for 30 m, and the resulting pellets were stored at −80° C. until required.
(§3) 35S-TBPS binding assay. Membrane pellets containing either GABAA α1β2γ2 or GABAA α2β3γ2 constructs were thawed on ice, resuspended in 10 mL of 50 mM Tris HCl pH 7.4, 4° C. and 150 mM KCl and centrifuged at 48,000×g, 30 m at 4° C. After discarding the supernatant, the pellet was resuspended in 30 mL incubation buffer (50 mM Tris HCl pH 7.4, 25° C. and 150 mM KCl) at approximately 0.5 mg/mL protein concentration. In ^35S-TBPS competition studies, HEK293 membranes were incubated with ^35S-TBPS (5 nM final) and GABA (1 μM) in the absence or presence of competitor at concentrations ranging from 0.01 nM to 10 μM in 125 μL incubation buffer for 2 hours at room temperature (˜22° C.). Non-specific binding was assayed with picrotoxin (100 μM final concentration). […] Measurement of bound radioactivity was performed using a Packard Microplate 96 well topcount scintillation counter. […]

[2] = molecular target: T2, GABAA α2β3γ2 (Homo sapiens, UniProt P18507+P28472+P47869); assay: 35S-TBPS binding assay, GABAA α2β3γ2; conditions: 35S-TBPS (5 nM) competition, GABA 1 μM, HEK293 cell membranes, 2 hours at room temperature; for IC50: read-out: pIC50 α2β3γ2 (converted)
T2 construct: expressed in transfected cells; host or cells: HEK293
T2 sequence (P47869 29-451): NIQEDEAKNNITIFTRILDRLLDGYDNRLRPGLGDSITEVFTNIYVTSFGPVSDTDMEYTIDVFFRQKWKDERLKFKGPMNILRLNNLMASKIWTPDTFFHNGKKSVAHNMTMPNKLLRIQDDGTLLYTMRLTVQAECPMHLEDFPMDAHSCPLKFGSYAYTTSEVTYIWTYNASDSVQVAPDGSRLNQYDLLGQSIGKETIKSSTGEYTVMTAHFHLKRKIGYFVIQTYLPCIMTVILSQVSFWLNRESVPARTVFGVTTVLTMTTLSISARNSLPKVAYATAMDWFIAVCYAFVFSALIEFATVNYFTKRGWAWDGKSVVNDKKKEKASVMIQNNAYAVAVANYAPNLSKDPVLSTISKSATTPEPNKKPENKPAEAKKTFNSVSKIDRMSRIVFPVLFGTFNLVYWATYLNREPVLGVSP
T2 sequence (P28472 26-473): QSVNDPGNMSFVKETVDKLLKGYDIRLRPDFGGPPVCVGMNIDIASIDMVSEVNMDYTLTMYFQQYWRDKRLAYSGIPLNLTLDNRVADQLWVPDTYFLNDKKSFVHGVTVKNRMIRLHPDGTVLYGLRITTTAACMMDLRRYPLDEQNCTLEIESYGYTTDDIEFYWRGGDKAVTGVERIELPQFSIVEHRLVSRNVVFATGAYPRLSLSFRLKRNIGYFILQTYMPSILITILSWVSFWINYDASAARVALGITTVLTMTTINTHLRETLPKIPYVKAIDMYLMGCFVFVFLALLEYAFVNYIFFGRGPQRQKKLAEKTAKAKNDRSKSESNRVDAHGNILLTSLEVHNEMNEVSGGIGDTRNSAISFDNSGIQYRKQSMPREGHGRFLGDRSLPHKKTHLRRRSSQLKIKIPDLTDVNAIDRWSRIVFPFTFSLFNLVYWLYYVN
T2 sequence (P18507 40-475): as the sequence (P18507 40-475) above
Procedure: as §1, §2, §3

Compound	melting point [°C]	also measured
Cn1nc2c(c1Cl)CCCN2c1ccc(Cl)cc1Cl [Compound 1-9, 3-chloro-7-(2,4-dichloro-phenyl)-2-methyl-4,5,6,7-tetrahydro-2H-pyrazolo [3,4-b]pyridine]	94.5 to 95.5	IC50 [1]: 1200 nM; IC50 [2]: 96.4 nM
7-(2,4-Dichloro-phenyl)-3-ethynyl-2-methyl-4,5,6,7-tetrahydro-2H-|pyrazolo[3,4-b]pyridine [Compound 3-10]		pIC50 α1β2γ2 [1]: 5.423; pIC50 α2β3γ2 [2]: 6.883
CC/C=C(\CCC)c1c2c(nn1C)N(c1c(C)cc(C)cc1Cl)CCC2 [Compound 3-1, 7-(2-Chloro-4,6-dimethylphenyl)-2-methyl-3-(1-propylbut-1-enyl)-4,5,6,7-tetrahydro-2H-pyrazolo[3,4-b]pyridine]	86.7 to 88.2	
CCC(CC)Nc1c2c(nn1C)N(c1c(C)cc(C)cc1C)CCC2 [Compound 5-36, (1-Ethylpropyl)-[2-methyl-7-(2,4,6-trimethyl-phenyl)-4,5,6,7-tetrahydro-2H-pyrazolo[3,4-b]pyridin-3-yl]-amine]	99.3 to 104.9	
Cc1cc(C)c(N2CCCc3c2nn(C)c3C(C)O)c(C)c1 (centres unmarked) [Compound 2-15, 1-[7-(2,4,6-trimethyl-phenyl)-2-methyl-4,5,6,7-tetrahydro-2H-pyrazolo[3,4-b]pyridin-3-yl]-ethanol]	178 to 179.6	
Cc1cc(C)c(N2CCCc3c2nn(C)c3Br)c(C)c1 [Compound 1-3, 3-Bromo-2-methyl-7-(2,4,6-trimethyl-phenyl)-4,5,6,7-tetrahydro-2H-pyrazolo[3,4-b]pyridine]	94.6 to 97.9	

Second part, led by results:

melting point [°C]	Compound	also measured
66.6 to 76.6	Cc1c2c(nn1C)N(c1ccc(Cl)cc1Cl)CCC2 [Compound 2-17, 7-(2,4-Dichloro-phenyl)-2,3-dimethyl-4,5,6,7-tetrahydro-2H-pyrazolo[3,4-b]pyridine]	IC50 [1]: 2840 nM; IC50 [2]: 105 nM
226 to 228	CCC(=O)Nc1c2c(nn1C)N(c1c(C)cc(C)cc1C)CCC2 [Compound 7-3, N-[2-Methyl-7-(2,4,6-trimethylphenyl)-4,5,6,7-tetrahydro-2H-pyrazolo[3,4-b]pyridin-3-yl]propionamide]	
83 to 86	Cc1cc(C)c(N2CCCc3c2nn(C)c3Cl)c(C)c1 [Compound 1-11, 3-chloro-7-(2,4,6-trimethyl-phenyl)-2-methyl-4,5,6,7-tetrahydro-2H-pyrazolo[3,4-b]pyridine]	
